Patent US20080293771A1, “AZACYCLYLBENZAMIDE DERIVATIVES AS HISTAMINE-3 ANTAGONISTS” (Wyeth, priority 2007, published 2008)
Counter-ions that a name gives are not always drawn.

SMILES | melting point
CC(C)N1CCC(N(C)C(=O)c2ccc(-n3cc4ccccc4n3)cc2)CC1 (as salt: hydrochloride) [Example 69, 4-(2H-indazol-2-yl)-N-(1-isopropylpiperidin-4-yl)-N-methylbenzamide] | 166 to 168 °C
CN(C(=O)c1ccc(-n2cc3ccccc3n2)cc1)C1CCN(C2CCC2)CC1 (as salt: hydrochloride) [Example 70, N-(1-cyclobutylpiperidin-4-yl)-4-(2H-indazol-2-yl)-N-methylbenzamide] | 273 to 275 °C
CN(C(=O)c1ccc(-n2cc3ccccc3n2)cc1)C1CCN(C2CCCC2)CC1 (as salt: hydrochloride) [Example 71, N-(1-cyclopentylpiperidin-4-yl)-4-(2H-indazol-2-yl)-N-methylbenzamide] | 283 to 285 °C
CC(C)N1CCC(N(C)C(=O)c2ccc(-n3ncc4ccccc43)cc2)CC1 (as salt: hydrochloride) [Example 72, 4-(1H-indazol-1-yl)-N-(1-isopropylpiperidin-4-yl)-N-methylbenzamide] | 151 to 162 °C
CN(C(=O)c1ccc(-n2ncc3ccccc32)cc1)C1CCN(C2CCC2)CC1 (as salt: hydrochloride) [Example 73, N-(1-cyclobutylpiperidin-4-yl)-4-(1H-indazol-1-yl)-N-methylbenzamide] | 160 °C (dec.)
CN(C(=O)c1ccc(-n2ncc3ccccc32)cc1)C1CCN(C2CCCC2)CC1 (as salt: hydrochloride) [Example 74, N-(1-cyclopentylpiperidin-4-yl)-4-(1H-indazol-1-yl)-N-methylbenzamide] | 240 °C (dec.)
CN(C(=O)c1ccc(Cn2ncc3ccccc32)cc1)[C@@H]1CCNC1 (as salt: hydrochloride) [Example 75, (R)-4-((1H-indazol-1-yl)methyl)-N-methyl-N-(pyrrolidin-3yl)benzamide] | 255 to 256 °C
CC(C)N1CC[C@@H](N(C)C(=O)c2ccc(Cn3ncc4ccccc43)cc2)C1 (as salt: hydrochloride) [Example 76, 4-(1H-indazol-1-ylmethyl)-N-[(3R)-1-isopropylpyrrolidin-3-yl]-N-methylbenzamide] | 156 to 158 °C
CN(C(=O)c1ccc(Cn2ncc3ccccc32)cc1)[C@@H]1CCN(C2CCC2)C1 (as salt: hydrochloride) [Example 77, N-[(3R)-1-cyclobutylpyrrolidin-3-yl]-4-(1H-indazol-1-ylmethyl)-N-methylbenzamide] | 105 to 106 °C
CN(C(=O)c1ccc(Cn2ncc3ccccc32)cc1)[C@@H]1CCN(C2CCCC2)C1 (as salt: hydrochloride) [Example 78, N-[(3R)-1-cyclopentylpyrrolidin-3-yl]-4-(1H-indazol-1-ylmethyl)-N-methylbenzamide] | 98 to 99 °C
CC(C)N1CCC(N(C)C(=O)c2ccc(Cn3ncc4ccccc43)cc2)CC1 (as salt: hydrochloride) [Example 79, 4-(1H-indazol-1-ylmethyl)-N-(1-isopropylpiperidin-4-yl)-N-methylbenzamide] | 197 to 199 °C
CN(C(=O)c1ccc(Cn2ncc3ccccc32)cc1)C1CCN(C2CCC2)CC1 (as salt: hydrochloride) [Example 80, N-(1-cyclobutylpiperidin-4-yl)-4-(1H-indazol-1-ylmethyl)-N-methylbenzamide] | 254 to 256 °C
CN(C(=O)c1ccc(Cn2ncc3ccccc32)cc1)C1CCN(C2CCCC2)CC1 (as salt: hydrochloride) [Example 81, N-(1-cyclopentylpiperidin-4-yl)-4-(1H-indazol-1-ylmethyl)-N-methylbenzamide] | 265 to 267 °C
CC(C)N1CCC(N(C)C(=O)c2ccc(-n3cccn3)cc2)CC1 (as salt: hydrochloride) [Example 85, N-(1-isopropylpiperidin-4-yl)-N-methyl-4-(1H-pyrazol-1-yl)benzamide] | 285 to 286 °C
